Among the data in US20230024096A1, “BIFUNCTIONAL COMPOUNDS FOR THE TREATMENT OF CANCER” (Hoffmann-La Roche Inc., priority 2019, published 2023) are DC50 and Emax values, retold here.

A word on the Emax: it is the greatest response seen or fitted, relative to the assay's reference.

The test addresses T1, SMARCA2 (Homo sapiens, UniProt P51531).
T1 construct: endogenous in cells; host or cells: HT1080 (CRISPR HiBiT knock-in clone, generated in house)
In words: SMARCA2 HiBiT degradation assay (cellular). The class given is cell-based. As to conditions: table head names A549; for DC50: 6 h incubation, HiBiT-tagged SMARCA2, luminescence read-out, read-out: HiBit A549 SMARCA2 IP (nM) 6 h; for Emax: A549, 6 h incubation, Emax = amount of residual protein remaining in the cell following compound treatment. Background: The HiBiT peptide binds its large partner to form an active luciferase.

T1 sequence (P51531 whole entry): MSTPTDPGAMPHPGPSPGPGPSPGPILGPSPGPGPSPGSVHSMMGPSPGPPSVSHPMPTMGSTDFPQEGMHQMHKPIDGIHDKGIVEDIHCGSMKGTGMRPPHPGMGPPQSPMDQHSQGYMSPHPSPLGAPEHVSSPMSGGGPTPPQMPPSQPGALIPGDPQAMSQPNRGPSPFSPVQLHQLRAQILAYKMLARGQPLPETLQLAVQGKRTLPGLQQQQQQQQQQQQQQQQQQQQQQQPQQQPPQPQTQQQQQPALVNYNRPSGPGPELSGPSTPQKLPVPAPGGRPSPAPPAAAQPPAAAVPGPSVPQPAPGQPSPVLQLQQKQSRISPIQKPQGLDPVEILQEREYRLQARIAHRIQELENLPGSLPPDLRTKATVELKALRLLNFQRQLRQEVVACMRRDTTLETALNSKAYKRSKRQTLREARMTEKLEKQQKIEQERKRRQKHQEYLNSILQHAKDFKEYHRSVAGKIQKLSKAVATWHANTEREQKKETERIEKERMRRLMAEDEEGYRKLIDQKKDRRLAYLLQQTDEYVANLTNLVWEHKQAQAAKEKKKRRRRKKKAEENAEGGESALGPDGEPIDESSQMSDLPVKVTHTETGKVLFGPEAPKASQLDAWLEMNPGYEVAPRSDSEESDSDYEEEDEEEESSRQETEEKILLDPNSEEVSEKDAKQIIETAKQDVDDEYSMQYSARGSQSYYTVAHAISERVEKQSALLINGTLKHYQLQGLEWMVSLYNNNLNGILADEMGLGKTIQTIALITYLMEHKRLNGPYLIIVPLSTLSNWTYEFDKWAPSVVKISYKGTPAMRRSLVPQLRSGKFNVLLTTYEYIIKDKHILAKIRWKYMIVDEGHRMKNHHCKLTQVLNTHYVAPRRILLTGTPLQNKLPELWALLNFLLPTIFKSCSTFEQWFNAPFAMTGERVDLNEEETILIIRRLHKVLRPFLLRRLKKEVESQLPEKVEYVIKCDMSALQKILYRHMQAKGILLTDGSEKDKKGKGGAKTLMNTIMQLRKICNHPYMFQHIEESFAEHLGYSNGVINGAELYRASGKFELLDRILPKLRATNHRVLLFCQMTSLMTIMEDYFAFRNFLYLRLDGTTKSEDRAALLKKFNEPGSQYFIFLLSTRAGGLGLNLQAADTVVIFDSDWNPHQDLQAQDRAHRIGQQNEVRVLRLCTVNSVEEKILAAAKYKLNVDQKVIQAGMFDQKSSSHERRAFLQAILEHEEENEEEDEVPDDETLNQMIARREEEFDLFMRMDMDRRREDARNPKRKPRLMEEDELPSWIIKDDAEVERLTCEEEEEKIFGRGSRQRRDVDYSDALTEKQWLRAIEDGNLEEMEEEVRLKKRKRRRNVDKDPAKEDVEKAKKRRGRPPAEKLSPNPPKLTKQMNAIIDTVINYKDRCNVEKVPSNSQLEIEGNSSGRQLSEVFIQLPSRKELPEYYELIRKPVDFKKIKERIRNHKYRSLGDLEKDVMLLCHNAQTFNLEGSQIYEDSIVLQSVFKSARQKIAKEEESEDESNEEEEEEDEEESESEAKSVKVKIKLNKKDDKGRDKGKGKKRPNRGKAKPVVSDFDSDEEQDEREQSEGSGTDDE

In the case of `Nc1nnc(-c2ccccc2O)cc1N1CC2CCC(C1)N2c1cccc(CN2CCC(C(=O)N3C[C@@H]4CN(c5ccc6c(c5)C(=O)N(C5CCC(=O)NC5=O)C6=O)C[C@@H]4C3)CC2)c1` (relative stereo) [Example 171, rac-2-(2,6-dioxo-3-piperidyl)-5-[rel-(3aR,6aS)-5-[1-[[3-[3-[3-amino-6-(2-hydroxyphenyl)pyridazin-4-yl]-3,8-diazabicyclo[3.2.1]octan-8-yl]phenyl]methyl]piperidine-4-carbonyl]-1,3,3a,4,6,6a-hexahydropyrrolo[3,4-c]pyrrol-2-yl]isoindoline-1,3-dione], the DC50 was found to be 66 nM and the Emax amounted to 40%.
`Nc1nnc(-c2ccccc2O)cc1OCC(CNC(=O)C1CCN(c2ccc3c(c2)C(=O)N(C2CCC(=O)NC2=O)C3=O)CC1)c1ccccc1` (racemic) [Example 97, N-[3-[3-amino-6-(2-hydroxyphenyl)pyridazin-4-yl]oxy-2-phenyl-propyl]-1-[2-(2,6-dioxo-3-piperidyl)-1,3-dioxo-isoindolin-5-yl]piperidine-4-carboxamide (racemic mixture of diastereomers)]: the DC50 is 659 nM and the Emax turned out to be 30%.
Turning to `Nc1nnc(-c2ccccc2O)cc1N1CC(Oc2ccc(C(=O)N3CCN(C(=O)CCCCCCCCCNc4cccc5c4C(=O)N(C4CCC(=O)NC4=O)C5=O)CC3)cc2)C1` (stereo not shown) [Example 150, 4-[[10-[4-[4-[1-[3-amino-6-(2-hydroxyphenyl)pyridazin-4-yl]azetidin-3-yl]oxybenzoyl]piperazin-1-yl]-10-oxo-decyl]amino]-2-(2,6-dioxo-3-piperidyl)isoindoline-1,3-dione], the DC50 was determined as 553 nM and the Emax was 65%.
Regarding `Nc1nnc(-c2ccccc2O)cc1N1CCN(c2ccccc2)C(C(=O)NC2CCN(C(=O)C3CCN(c4ccc5c(c4)C(=O)N(C4CCC(=O)NC4=O)C5=O)CC3)CC2)C1` (stereo not shown) [Example 87, 4-(3-amino-6-(2-hydroxyphenyl)pyridazin-4-yl)-N-(1-(1-(2-(2,6-dioxopiperidin-3-yl)-1,3-dioxoisoindolin-5-yl)piperidine-4-carbonyl)piperidin-4-yl)-1-phenylpiperazine-2-carboxamide], the DC50 is 81 nM and the Emax turned out to be 48%.
On the same counts, the results for `Nc1nnc(-c2cc(F)ccc2O)cc1OC1CCCN(c2ccc(N3CCN(C(=O)CCCCCCCCn4cc(CNc5cccc6c5C(=O)N(C5CCC(=O)NC5=O)C6=O)nn4)CC3)cc2)C1` (stereo not shown) [Example 64, 4-[[1-[9-[4-[4-[3-[3-amino-6-(5-fluoro-2-hydroxy-phenyl)pyridazin-4-yl]oxy-1-piperidyl]phenyl]piperazin-1-yl]-9-oxo-nonyl]triazol-4-yl]methylamino]-2-(2,6-dioxo-3-piperidyl)isoindoline-1,3-dione] are 82 nM and 52%.
Take `Nc1nnc(-c2ccccc2O)cc1N1CC2CCC(C1)N2c1cccc(OCCN2CCN(C(=O)C3CCN(c4cccc5c4C(=O)N(C4CCC(=O)NC4=O)C5=O)CC3)CC2)c1` (racemic) [Example 13, rac-4-[4-[4-[2-[3-[3-[3-amino-6-(2-hydroxyphenyl)pyridazin-4-yl]-3,8-diazabicyclo[3.2.1]octan-8-yl]phenoxy]ethyl]piperazine-1-carbonyl]-1-piperidyl]-2-(2,6-dioxo-3-piperidyl)isoindoline-1,3-dione]: the DC50 worked out at 32 nM and the Emax stood at 64%.
Consider `Nc1nnc(-c2ccccc2O)cc1N1CC2CCC(C1)N2c1cccc(OC2CCC(CC(=O)N3CC4(C3)CN(C(=O)C3CCN(c5ccc6c(c5)C(=O)N(C5CCC(=O)NC5=O)C6=O)CC3)C4)CC2)c1` (racemic) [Example 31, rac-5-[4-[6-[2-[4-[3-[3-[3-amino-6-(2-hydroxyphenyl)pyridazin-4-yl]-3,8-diazabicyclo[3.2.1]octan-8-yl]phenoxy]cyclohexyl]acetyl]-2,6-diazaspiro[3.3]heptane-2-carbonyl]-1-piperidyl]-2-(2,6-dioxo-3-piperidyl)isoindoline-1,3-dione], for which the DC50 was 383 nM and the maximum response (Emax) worked out at 55%.
On the same counts, the results for `Nc1nnc(-c2cc(F)ccc2O)cc1N1C2CCC1CN(c1cccc(OCCN3CCN(CC4CCN(c5ccc6c(c5)C(=O)N(C5CCC(=O)NC5=O)C6=O)CC4)CC3)c1)C2` (stereo not shown) [Example 57, 5-[4-[[4-[2-[3-[8-[3-amino-6-(5-fluoro-2-hydroxy-phenyl)pyridazin-4-yl]-3,8-diazabicyclo[3.2.1]octan-3-yl]phenoxy]ethyl]piperazin-1-yl]methyl]-1-piperidyl]-2-(2,6-dioxo-3-piperidyl)isoindoline-1,3-dione] are 406 nM and 67%.
As for `Nc1nnc(-c2ccccc2O)cc1N1CCC(C(=O)N2CC3(CCN(CCOC4CCN(c5ccc6c(c5)C(=O)N(C5CCC(=O)NC5=O)C6=O)CC4)C3)C2)(c2ccccc2)CC1` (stereo not shown) [Example 192, 5-[4-[2-[2-[1-[3-amino-6-(2-hydroxyphenyl)pyridazin-4-yl]-4-phenyl-piperidine-4-carbonyl]-2,7-diazaspiro[3.4]octan-7-yl]ethoxy]-1-piperidyl]-2-(2,6-dioxo-3-piperidyl)isoindoline-1,3-dione], the DC50 was 57 nM and the Emax worked out at 34%.
In the case of `Nc1nnc(-c2ccccc2O)cc1N1CC2CCC(C1)N2c1nccc(OCCN2CCN(CCCOC3CCN(c4ccc5c(c4)C(=O)N(C4CCC(=O)NC4=O)C5=O)CC3)CC2)n1` (racemic) [Example 161, rac-5-[4-[3-[4-[2-[2-[3-[3-Amino-6-(2-hydroxyphenyl)pyridazin-4-yl]-3,8-diazabicyclo[3.2.1]octan-8-yl]pyrimidin-4-yl]oxyethyl]piperazin-1-yl]propoxy]-1-piperidyl]-2-(2,6-dioxo-3-piperidyl)isoindoline-1,3-dione], the DC50 was found to be 33 nM and the maximal response (Emax) was found to be 30%.
On the same counts, the results for `Nc1nnc(-c2ccccc2O)cc1OC1CCCN(c2ccc(N3CCN(CCCCCCCCCc4ccc(CNc5cccc6c5C(=O)N(C5CCC(=O)NC5=O)C6=O)nc4)CC3)cc2)C1` (stereo not shown) [Example 136, 4-[[5-[9-[4-[4-[3-[3-amino-6-(2-hydroxyphenyl)pyridazin-4-yl]oxy-1-piperidyl]phenyl]piperazin-1-yl]nonyl]-2-pyridyl]methylamino]-2-(2,6-dioxo-3-piperidyl)isoindoline-1,3-dione] are 495 nM and 45%.
Take `Nc1nnc(-c2ccccc2O)cc1N1CCC(NC(=O)CCN2CCC(c3ccc(OC4CCC(=O)NC4=O)cc3)CC2)(c2ccccc2)CC1` (stereo not shown) [Example 115, N-(1-(3-amino-6-(2-hydroxyphenyl)pyridazin-4-yl)-4-phenylpiperidin-4-yl)-3-(4-(4-((2,6-dioxopiperidin-3-yl)oxy)phenyl)piperidin-1-yl)propanamide diformate]: the DC50 worked out at 810 nM and the maximum response (Emax) was determined as 63%.
For `Nc1nnc(-c2ccccc2O)cc1N1CC(Oc2ccc(C(=O)N3CCN(C(=O)C4CCN(c5ccc6c(c5)C(=O)N(C5CCC(=O)NC5=O)C6=O)CC4)CC3)c(C(F)(F)F)c2)C1` (racemic) [Example 132, rac-5-[4-[4-[4-[1-[3-amino-6-(2-hydroxyphenyl)pyridazin-4-yl]azetidin-3-yl]oxy-2-(trifluoromethyl)benzoyl]piperazine-1-carbonyl]-1-piperidyl]-2-(2,6-dioxo-3-piperidyl)isoindoline-1,3-dione], the DC50 came to 133 nM and the Emax is 44%.
On the same counts, the results for `Nc1nnc(-c2ccccc2O)cc1N1CC2CCC(C1)N2c1cccc(OCCN2CCN(C(=O)CC3CCN(c4cccc5c4C(=O)N(C4CCC(=O)NC4=O)C5=O)CC3)CC2)c1` (racemic) [Example 15, rac-4-[4-[2-[4-[2-[3-[3-[3-amino-6-(2-hydroxyphenyl)pyridazin-4-yl]-3,8-diazabicyclo[3.2.1]octan-8-yl]phenoxy]ethyl]piperazin-1-yl]-2-oxo-ethyl]-1-piperidyl]-2-(2,6-dioxo-3-piperidyl)isoindoline-1,3-dione] are 35 nM and 52%.
On the same counts, the results for `Nc1nnc(-c2ccccc2O)cc1N1CCC(C(=O)N2CC3(CCN(C(=O)CC4CCN(c5ccc6c(c5)C(=O)N(C5CCC(=O)NC5=O)C6=O)CC4)C3)C2)(c2ccccc2)CC1` (stereo not shown) [Example 187, 5-(4-(2-(2-(1-(3-amino-6-(2-hydroxyphenyl)pyridazin-4-yl)-4-phenylpiperidine-4-carbonyl)-2,6-diazaspiro[3.4]octan-6-yl)-2-oxoethyl)piperidin-1-yl)-2-(2,6-dioxopiperidin-3-yl)isoindoline-1,3-dione] are 579 nM and 53%.
In the case of `CN(C(=O)C1CCN(Cc2cccc(N3C4CCC3CN(c3cc(-c5ccccc5O)nnc3N)C4)c2)CC1)C1CN(c2ccc3c(c2)C(=O)N(C2CCC(=O)NC2=O)C3=O)C1` (racemic) [Example 170, rac-1-[[3-[3-[3-amino-6-(2-hydroxyphenyl)pyridazin-4-yl]-3,8-diazabicyclo[3.2.1]octan-8-yl]phenyl]methyl]-N-[1-[2-(2,6-dioxo-3-piperidyl)-1,3-dioxo-isoindolin-5-yl]azetidin-3-yl]-N-methyl-piperidine-4-carboxamide], the DC50 worked out at 18 nM and the Emax was 31%.
For the molecule `Nc1nnc(-c2ccccc2O)cc1OC1CCCN(c2ccc(OCCN3CCN(C(=O)CCCCCCCCCCCn4cc(CNc5cccc6c5C(=O)N(C5CCC(=O)NC5=O)C6=O)nn4)CC3)cc2)C1` (stereo not shown) [Example 23, 4-[[1-[12-[4-[2-[4-[3-[3-amino-6-(2-hydroxyphenyl)pyridazin-4-yl]oxy-1-piperidyl]phenoxy]ethyl]piperazin-1-yl]-12-oxo-dodecyl]triazol-4-yl]methylamino]-2-(2,6-dioxo-3-piperidyl)isoindoline-1,3-dione], the DC50 is 157 nM and the maximum response (Emax) came to 45%.
